Results as given in ChEMBL document CHEMBL1201861, “Genomics of Drug Sensitity in Cancer screening data, Wellcome Trust Sanger Institute”.

Tests used:
CP50-MEL-B = experiment: cells; format: functional, cell-based; details: Homo sapiens;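 note: growth inhibition of the human cell line, measured with a cell viability read-out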
Description: SANGER: Inhibition of human CP50-MEL-B cell growth in a cell viability assay.

Ca-Ski = experiment: cells; format: functional, cell-based; details: Homo sapiens;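 note: cell viability assay measuring inhibition of Ca-Ski cell growth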
Description: SANGER: Inhibition of human Ca-Ski cell growth in a cell viability assay.

Ca9-22 = experiment: cells; format: functional, cell-based; details: Homo sapiens;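 note: growth inhibition of Ca9-22 cells, read out with a cell viability assay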
Description: SANGER: Inhibition of human Ca9-22 cell growth in a cell viability assay.

DG-75 = experiment: cells; format: functional, cell-based; details: Homo sapiens;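 note: growth inhibition of DG-75 cells, read out with a cell viability assay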
Description: SANGER: Inhibition of human DG-75 cell growth in a cell viability assay.

DMS-153 = experiment: cells; format: functional, cell-based; details: Homo sapiens
Description: SANGER: Inhibition of human DMS-153 cell growth in a cell viability assay.

DU-145 = experiment: cells; format: functional, cell-based; details: Homo sapiens
Description: SANGER: Inhibition of human DU-145 cell growth in a cell viability assay.

Detroit 562 = experiment: cells; format: functional, cell-based; details: Homo sapiens;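 note: growth inhibition of human Detroit 562 cells, read out by a cell viability assay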
Description: SANGER: Inhibition of human Detroit562 cell growth in a cell viability assay.

EFM-19 = experiment: cells; format: functional, cell-based; details: Homo sapiens;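 note: growth inhibition of human EFM-19 cells, measured in a cell viability assay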
Description: SANGER: Inhibition of human EFM-19 cell growth in a cell viability assay.

EFO-21 = experiment: cells; format: functional, cell-based; details: Homo sapiens;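 note: growth inhibition of EFO-21 cells measured with a viability assay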
Description: SANGER: Inhibition of human EFO-21 cell growth in a cell viability assay.

EHEB = experiment: cells; format: functional, cell-based; details: Homo sapiens;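 note: growth inhibition of human EHEB cells, read out with a cell viability assay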
Description: SANGER: Inhibition of human EHEB cell growth in a cell viability assay.

FTC-133 = experiment: cells; format: functional, cell-based; details: Homo sapiens
GP5d = experiment: cells; format: functional, cell-based; details: Homo sapiens;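 note: growth inhibition of human GP5d cells, read out with a cell viability assay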
Description: SANGER: Inhibition of human GP5d cell growth in a cell viability assay.

HCC1395 = experiment: cells; format: functional, cell-based; details: Homo sapiens;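 note: growth inhibition of HCC1395 cells, read out by a cell viability assay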
Description: SANGER: Inhibition of human HCC1395 cell growth in a cell viability assay.

HCC 2998 = experiment: cells; format: functional, cell-based; details: Homo sapiens;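 note: growth inhibition of human HCC2998 cells, measured with a cell viability read-out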
Description: SANGER: Inhibition of human HCC2998 cell growth in a cell viability assay.

HCT-15 = experiment: cells; format: functional, cell-based; details: Homo sapiens;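 note: cell viability readout, IC50 reflecting suppression of HCT-15 cell growth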
Description: SANGER: Inhibition of human HCT-15 cell growth in a cell viability assay.

HEC-1 = experiment: cells; format: functional, cell-based; details: Homo sapiens;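 note: growth inhibition of the cell line, read out with a cell viability assay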
Description: SANGER: Inhibition of human HEC-1 cell growth in a cell viability assay.

HPAF-II = experiment: cells; format: functional, cell-based; details: Homo sapiens;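 note: growth inhibition of HPAF-II cells, read out with a cell viability assay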
Description: SANGER: Inhibition of human HPAF-II cell growth in a cell viability assay.

HT-1080 = experiment: cells; format: functional, cell-based; details: Homo sapiens
Description: SANGER: Inhibition of human HT-1080 cell growth in a cell viability assay.

HuCCT-1 = experiment: cells; format: functional, cell-based, HuCCT1; details: Homo sapiens;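 note: growth inhibition of HuCCT-1 cells, read out by a cell viability assay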
Description: SANGER: Inhibition of human HuCCT1 cell growth in a cell viability assay.

IGROV-1 = experiment: cells; format: functional, cell-based; details: Homo sapiens;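 note: reduction of IGROV-1 cell growth, read out with a viability assay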
Description: SANGER: Inhibition of human IGROV-1 cell growth in a cell viability assay.

KMS-12-PE = experiment: cells; format: functional, cell-based; details: Homo sapiens;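 note: growth inhibition of human KMS-12-PE cells, measured with a cell viability assay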
Description: SANGER: Inhibition of human KMS-12-PE cell growth in a cell viability assay.

KP-N-YN = experiment: cells; format: functional, cell-based; details: Homo sapiens;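 note: growth inhibition of KP-N-YN cells, read out with a cell viability assay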
Description: SANGER: Inhibition of human KP-N-YN cell growth in a cell viability assay.

LB647-SCLC = experiment: cells; format: functional, cell-based; details: Homo sapiens;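 note: cell growth inhibition, read out by a viability assay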
Description: SANGER: Inhibition of human LB647-SCLC cell growth in a cell viability assay.

LB996-RCC = experiment: cells; format: functional, cell-based; details: Homo sapiens
Description: SANGER: Inhibition of human LB996-RCC cell growth in a cell viability assay.

LU-165 = experiment: cells; format: functional, cell-based; details: Homo sapiens
Description: SANGER: Inhibition of human LU-165 cell growth in a cell viability assay.

LU-99A = experiment: cells; format: functional, cell-based; details: Homo sapiens;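 note: growth inhibition of LU-99A cells, read out with a cell viability assay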
Description: SANGER: Inhibition of human LU-99A cell growth in a cell viability assay.

MCF7 = experiment: cells; format: functional, cell-based; details: Homo sapiens;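 note: growth inhibition of human MCF7 cells, read out with a cell viability assay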
Description: SANGER: Inhibition of human MCF7 cell growth in a cell viability assay.

ME-180 = experiment: cells; format: functional, cell-based; details: Homo sapiens;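 note: cell viability assay measuring growth inhibition of ME-180 cells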
Description: SANGER: Inhibition of human ME-180 cell growth in a cell viability assay.

MEL-HO = experiment: cells; format: functional, cell-based; details: Homo sapiens
Description: SANGER: Inhibition of human MEL-HO cell growth in a cell viability assay.

NCI-H1573 = experiment: cells; format: functional, cell-based; details: Homo sapiens;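 note: growth inhibition of NCI-H1573 cells, read out with a cell viability assay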
Description: SANGER: Inhibition of human NCI-H1573 cell growth in a cell viability assay.

NCI-H1703 = experiment: cells; format: functional, cell-based; details: Homo sapiens;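 note: growth inhibition of NCI-H1703 cells, read out via a cell viability assay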
Description: SANGER: Inhibition of human NCI-H1703 cell growth in a cell viability assay.

NCI-H1792 = experiment: cells; format: functional, cell-based; details: Homo sapiens;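 note: growth inhibition of human NCI-H1792 cells, read out as cell viability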
Description: SANGER: Inhibition of human NCI-H1792 cell growth in a cell viability assay.

NCI-H2081 = experiment: cells; format: functional, cell-based; details: Homo sapiens;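 note: growth inhibition of human NCI-H2081 cells, read out with a cell viability assay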
Description: SANGER: Inhibition of human NCI-H2081 cell growth in a cell viability assay.

NCI-H2122 = experiment: cells; format: functional, cell-based; details: Homo sapiens;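 note: growth inhibition of the cells, read out with a cell viability assay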
Description: SANGER: Inhibition of human NCI-H2122 cell growth in a cell viability assay.

NCI-H2171 = experiment: cells; format: functional, cell-based; details: Homo sapiens;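 note: growth inhibition of human NCI-H2171 cells, read out by a cell viability assay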
Description: SANGER: Inhibition of human NCI-H2171 cell growth in a cell viability assay.

NCI-H2196 = experiment: cells; format: functional, cell-based; details: Homo sapiens;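 note: cell viability assay used as the readout of growth inhibition in NCI-H2196 cells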
Description: SANGER: Inhibition of human NCI-H2196 cell growth in a cell viability assay.

NCI-H2342 = experiment: cells; format: functional, cell-based; details: Homo sapiens;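 note: growth inhibition of the cancer cell line, determined with a cell viability assay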
Description: SANGER: Inhibition of human NCI-H2342 cell growth in a cell viability assay.

NCI-H727 = experiment: cells; format: functional, cell-based; details: Homo sapiens;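 note: growth inhibition of human NCI-H727 cells, read out with a cell viability assay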
Description: SANGER: Inhibition of human NCI-H727 cell growth in a cell viability assay.

NCI-H748 = experiment: cells; format: functional, cell-based; details: Homo sapiens;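 note: growth inhibition of NCI-H748 cells, measured by a cell viability assay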
Description: SANGER: Inhibition of human NCI-H748 cell growth in a cell viability assay.

OVCAR-3 = experiment: cells; format: functional, cell-based; details: Homo sapiens;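 note: growth inhibition of human OVCAR-3 cells, determined by a cell viability assay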
Description: SANGER: Inhibition of human OVCAR-3 cell growth in a cell viability assay.

PANC-08-13 = experiment: cells; format: functional, cell-based; details: Homo sapiens
Description: SANGER: Inhibition of human PANC-08-13 cell growth in a cell viability assay.

RCM-1 = experiment: cells; format: functional, cell-based; details: Homo sapiens;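 note: growth inhibition of the RCM-1 line, determined with a cell viability readout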
Description: SANGER: Inhibition of human RCM-1 cell growth in a cell viability assay.

REH = experiment: cells; format: functional, cell-based; details: Homo sapiens;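 note: growth inhibition of REH cells determined with a cell viability read-out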
Description: SANGER: Inhibition of human REH cell growth in a cell viability assay.

RPMI 8402 = experiment: SANGER: Inhibition of human RPMI-8402 cell growth in a cell viability assay.; format: functional, cell-based
SBC-5 = experiment: cells; format: functional, cell-based; details: Homo sapiens;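 note: cell viability assay read-out, IC50 is the concentration that inhibits growth of the cells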
Description: SANGER: Inhibition of human SBC-5 cell growth in a cell viability assay.

SIG-M5 = experiment: cells; format: functional, cell-based; details: Homo sapiens;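 note: cell viability assay read-out, measuring how strongly growth of cultured human SIG-M5 cells is inhibited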
Description: SANGER: Inhibition of human SIG-M5 cell growth in a cell viability assay.

SK-MM-2 = experiment: cells; format: functional, cell-based; details: Homo sapiens;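 note: growth inhibition of human SK-MM-2 cells, read out with a cell viability assay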
Description: SANGER: Inhibition of human SK-MM-2 cell growth in a cell viability assay.

SNU-423 = experiment: cells; format: functional, cell-based; details: Homo sapiens
Description: SANGER: Inhibition of human SNU-423 cell growth in a cell viability assay.

SW-620 = experiment: cells; format: functional, cell-based; details: Homo sapiens;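 note: growth inhibition of human SW-620 cells, measured by a cell viability assay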
Description: SANGER: Inhibition of human SW620 cell growth in a cell viability assay.

8305C = experiment: cells; format: functional, cell-based; details: Homo sapiens
Description: SANGER: Inhibition of human 8305C cell growth in a cell viability assay.

A253 cell line = experiment: cells; format: functional, cell-based; details: Homo sapiens;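 note: growth inhibition of A253 cells, read out with a cell viability assay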
Description: SANGER: Inhibition of human A253 cell growth in a cell viability assay.

BPH-1 = experiment: cells; format: functional, cell-based; details: Homo sapiens;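 note: cell viability assay measuring growth inhibition of human BPH-1 cells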
Description: SANGER: Inhibition of human BPH-1 cell growth in a cell viability assay.

BT-20 = experiment: cells; format: functional, cell-based; details: Homo sapiens;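 note: cell viability assay measuring suppression of growth in human BT-20 cells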
Description: SANGER: Inhibition of human BT-20 cell growth in a cell viability assay.

CAL-120 = experiment: cells; format: functional, cell-based; details: Homo sapiens;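 note: cell growth inhibition, read out as cell viability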
Description: SANGER: Inhibition of human CAL-120 cell growth in a cell viability assay.

TE-441-T = experiment: cells; format: functional, cell-based; details: Homo sapiens
Description: SANGER: Inhibition of human TE-441-T cell growth in a cell viability assay.

U-698-M = experiment: cells; format: functional, cell-based; details: Homo sapiens
Description: SANGER: Inhibition of human U-698-M cell growth in a cell viability assay.

U-251 = experiment: cells; format: functional, cell-based; details: Homo sapiens;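 note: growth inhibition of human U-251 cells, read out through a cell viability assay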
Description: SANGER: Inhibition of human U251 cell growth in a cell viability assay.

WSU-NHL = experiment: cells; format: functional, cell-based; details: Homo sapiens;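 note: growth inhibition of human WSU-NHL cells, read out with a cell viability assay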
Description: SANGER: Inhibition of human WSU-NHL cell growth in a cell viability assay.

YAPC = experiment: cells; format: functional, cell-based; details: Homo sapiens;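 note: growth inhibition of YAPC cells, measured with a cell viability assay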
Description: SANGER: Inhibition of human YAPC cell growth in a cell viability assay.

CAPAN-1 = experiment: cells; format: functional, cell-based; details: Homo sapiens;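 note: growth suppression of CAPAN-1 cells, read out by a cell viability assay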
Description: SANGER: Inhibition of human CAPAN-1 cell growth in a cell viability assay.

CHL-1 = experiment: cells; format: functional, cell-based; details: Homo sapiens;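 note: cell growth inhibition, read out with a cell viability assay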
Description: SANGER: Inhibition of human CHL-1 cell growth in a cell viability assay.

CHP-126 = experiment: cells; format: functional, cell-based; details: Homo sapiens
Description: SANGER: Inhibition of human CHP-126 cell growth in a cell viability assay.

CHP-212 = experiment: cells; format: functional, cell-based; details: Homo sapiens
Description: SANGER: Inhibition of human CHP-212 cell growth in a cell viability assay.

COLO-680N = experiment: cells; format: functional, cell-based; details: Homo sapiens;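 note: cell viability assay used to measure inhibition of COLO-680N cell growth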
Description: SANGER: Inhibition of human COLO-680N cell growth in a cell viability assay.

Compound: C/C(O)=C(\C#N)C(=O)Nc1cc(Br)ccc1Br
- IC50 (CP50-MEL-B): > 16 µM
- IC50 (Ca-Ski): > 16 µM
- IC50 (Ca9-22): > 16 µM
- IC50 (DG-75): > 16 µM
- IC50 (DMS-153): > 16 µM
- IC50 (DU-145): > 16 µM
- IC50 (Detroit 562): > 16 µM
- IC50 (EFM-19): > 16 µM
- IC50 (EFO-21): > 16 µM
- IC50 (EHEB): > 16 µM
- IC50 (FTC-133): > 16 µM
- IC50 (GP5d): > 16 µM
- IC50 (HCC1395): > 16 µM
- IC50 (HCC 2998): > 16 µM
- IC50 (HCT-15): > 16 µM
- IC50 (HEC-1): > 16 µM
- IC50 (HPAF-II): > 16 µM
- IC50 (HT-1080): > 16 µM
- IC50 (HuCCT-1): > 16 µM
- IC50 (IGROV-1): > 16 µM
- IC50 (KMS-12-PE): > 16 µM
- IC50 (KP-N-YN): > 16 µM
- IC50 (LB647-SCLC): > 16 µM
- IC50 (LB996-RCC): > 16 µM
- IC50 (LU-165): > 16 µM
- IC50 (LU-99A): > 16 µM
- IC50 (MCF7): > 16 µM
- IC50 (ME-180): > 16 µM
- IC50 (MEL-HO): > 16 µM
- IC50 (NCI-H1573): > 16 µM
- IC50 (NCI-H1703): > 16 µM
- IC50 (NCI-H1792): > 16 µM
- IC50 (NCI-H2081): > 16 µM
- IC50 (NCI-H2122): > 16 µM
- IC50 (NCI-H2171): > 16 µM
- IC50 (NCI-H2196): > 16 µM
- IC50 (NCI-H2342): > 16 µM
- IC50 (NCI-H727): > 16 µM
- IC50 (NCI-H748): > 16 µM
- IC50 (OVCAR-3): > 16 µM
- IC50 (PANC-08-13): > 16 µM
- IC50 (RCM-1): > 16 µM
- IC50 (REH): > 16 µM
- IC50 (RPMI 8402): > 16 µM
- IC50 (SBC-5): > 16 µM
- IC50 (SIG-M5): > 16 µM
- IC50 (SK-MM-2): > 16 µM
- IC50 (SNU-423): > 16 µM
- IC50 (SW-620): > 16 µM
- IC50 (8305C): > 16 µM
- IC50 (A253 cell line): > 16 µM
- IC50 (BPH-1): > 16 µM
- IC50 (BT-20): > 16 µM
- IC50 (CAL-120): > 16 µM
- IC50 (TE-441-T): > 16 µM
- IC50 (U-698-M): > 16 µM
- IC50 (U-251): > 16 µM
- IC50 (WSU-NHL): > 16 µM
- IC50 (YAPC): > 16 µM
- IC50 (CAPAN-1): > 16 µM
- IC50 (CHL-1): > 16 µM
- IC50 (CHP-126): > 16 µM
- IC50 (CHP-212): > 16 µM
- IC50 (COLO-680N): > 16 µM

Compound: N#C/C(=C1/Nc2ccccc2S1)c1ccnc(NCCc2cccnc2)n1
- IC50 (CP50-MEL-B): > 8 µM
- IC50 (Ca-Ski): > 8 µM
- IC50 (Ca9-22): > 8 µM
- IC50 (DG-75): > 8 µM
- IC50 (DMS-153): > 8 µM
- IC50 (DU-145): > 8 µM
- IC50 (Detroit 562): 7.08 µM
- IC50 (EFM-19): 5.39 µM
- IC50 (EFO-21): > 8 µM
- IC50 (EHEB): > 8 µM
- IC50 (FTC-133): > 8 µM
- IC50 (GP5d): 7.52 µM
- IC50 (HCC1395): > 8 µM
- IC50 (HCC 2998): 3.17 µM
- IC50 (HCT-15): > 8 µM
- IC50 (HEC-1): > 8 µM
- IC50 (HPAF-II): > 8 µM
- IC50 (HT-1080): > 8 µM
- IC50 (HuCCT-1): 7.65 µM
- IC50 (IGROV-1): 0.603 µM
- IC50 (KMS-12-PE): > 8 µM
- IC50 (KP-N-YN): > 8 µM
- IC50 (LB647-SCLC): > 8 µM
- IC50 (LB996-RCC): 2.86 µM
- IC50 (LU-165): > 8 µM
- IC50 (LU-99A): > 8 µM
- IC50 (MCF7): 1.5 µM
- IC50 (ME-180): > 8 µM
- IC50 (MEL-HO): 5.46 µM
- IC50 (NCI-H1573): > 8 µM
- IC50 (NCI-H1703): > 8 µM
- IC50 (NCI-H1792): > 8 µM
- IC50 (NCI-H2081): > 8 µM
- IC50 (NCI-H2122): 0.672 µM
- IC50 (NCI-H2171): > 8 µM
- IC50 (NCI-H2196): > 8 µM
- IC50 (NCI-H2342): 4.52 µM
- IC50 (NCI-H727): 0.893 µM
- IC50 (NCI-H748): > 8 µM
- IC50 (OVCAR-3): > 8 µM
- IC50 (PANC-08-13): 3.63 µM
- IC50 (RCM-1): > 8 µM
- IC50 (REH): > 8 µM
- IC50 (RPMI 8402): > 8 µM
- IC50 (SBC-5): 6.89 µM
- IC50 (SIG-M5): > 8 µM
- IC50 (SK-MM-2): > 8 µM
- IC50 (SNU-423): 2.3 µM
- IC50 (SW-620): > 8 µM
- IC50 (8305C): > 8 µM
- IC50 (A253 cell line): > 8 µM
- IC50 (BPH-1): > 8 µM
- IC50 (BT-20): > 8 µM
- IC50 (CAL-120): > 8 µM
- IC50 (TE-441-T): > 8 µM
- IC50 (U-698-M): 2.98 µM
- IC50 (U-251): > 8 µM
- IC50 (WSU-NHL): > 8 µM
- IC50 (YAPC): > 8 µM
- IC50 (CAPAN-1): > 8 µM
- IC50 (CHL-1): 6.1 µM
- IC50 (CHP-126): > 8 µM
- IC50 (CHP-212): > 8 µM
- IC50 (COLO-680N): > 8 µM
